# Measurements from patent publication US8431593B2, “Heteroaryl amide derivatives” (H. Lundbeck A/S, priority 2006, dated 2013).
# Biological target: T1, P2X7 receptor (Homo sapiens, UniProt Q99572)
# T1 construct: host or cells: SH-SY5Y
# T1 sequence (Q99572 1-595): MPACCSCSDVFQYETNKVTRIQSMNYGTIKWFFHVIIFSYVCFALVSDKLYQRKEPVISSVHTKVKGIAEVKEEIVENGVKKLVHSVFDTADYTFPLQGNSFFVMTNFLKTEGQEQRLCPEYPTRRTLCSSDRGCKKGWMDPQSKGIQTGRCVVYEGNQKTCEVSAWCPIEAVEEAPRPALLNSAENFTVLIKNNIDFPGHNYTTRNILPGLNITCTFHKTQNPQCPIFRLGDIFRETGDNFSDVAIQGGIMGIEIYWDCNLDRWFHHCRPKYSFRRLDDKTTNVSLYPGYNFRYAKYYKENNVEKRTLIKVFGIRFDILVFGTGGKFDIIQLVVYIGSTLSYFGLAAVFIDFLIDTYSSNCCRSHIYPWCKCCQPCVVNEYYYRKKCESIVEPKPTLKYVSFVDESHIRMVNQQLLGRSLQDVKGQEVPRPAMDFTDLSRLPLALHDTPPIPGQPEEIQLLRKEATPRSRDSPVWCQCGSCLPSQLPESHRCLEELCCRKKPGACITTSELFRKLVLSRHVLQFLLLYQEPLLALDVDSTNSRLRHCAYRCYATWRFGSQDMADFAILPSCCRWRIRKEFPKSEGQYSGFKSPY
# Test: P2X7 calcium mobilization assay, high throughput, antagonist activity (Example 4A)
# Type: cell-based
# Settings: 50% decrease in the fluorescence response of cells exposed to 80 μM 2′(3′)-O-(4-benzoyl-benzoyl)adenosine 5′-triphosphate; Example 4A; read-out: IC50
# How it was run: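 Antagonism was measured as calcium mobilization on FLIPR^TETRA after a 1 h room-temperature compound preincubation of dye-loaded cells. Baseline from no-agonist wells was subtracted from each well's maximum RFU.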
row,IC50 [nM],Compound
1,< 2000,"CC1(C)[C@@H]2CC[C@@H](CNC(=O)c3cccc4nc(CC(=O)N5CCCC(CN)C5)cn34)[C@H]1C2 (stereo partly drawn) [Compound 578, 2-{2-[3-(aminomethyl)piperidin-1-yl]-2-oxoethyl}-N-{[(1R,2R,5R)-6,6-dimethylbicyclo[3.1.1]hept-2-yl]methyl}imidazo[1,2-a]pyridine-5-carboxamide]"
2,< 2000,"CC1(C)[C@H]2CC[C@@H](CNC(=O)c3cccc4nc(C(=O)N5CCSCC5)cn34)[C@@H]1C2 [Compound 462, N-{[(1S,2R,5S)-6,6-dimethylbicyclo[3.1.1]hept-2-yl]methyl}-2-(thiomorpholin-4-ylcarbonyl)imidazo[1,2-a]pyridine-5-carboxamide]"

# Same assay, conditions: 50% decrease in the fluorescence response of cells exposed to 80 μM of 2′(3′)-O-(4-benzoyl-benzoyl)adenosine 5′-triphosphate; Example 4A; read-out: IC50
row,IC50 [nM],Compound
1,< 2000,"CCOC(=O)C(Cc1ccc(Cl)cc1)c1cn2c(C(=O)NCC34CC5CC(CC(C5)C3)C4)cccc2n1 (stereo not shown) [Compound 800, ethyl 2-{5-[(adamantan-1-ylmethyl)carbamoyl]imidazo[1,2-a]pyridin-2-yl}-3-(4-chlorophenyl) propanoate]"
2,< 2000,"CN1CCCC1CCNC(=O)c1cn2c(C(=O)NCC34CC5CC(CC(C5)C3)C4)cccc2n1 (stereo not shown) [Compound 649, 5-N-(adamantan-1-ylmethyl)-2-N-[2-(1-methylpyrrolidin-2-yl)ethyl]imidazo[1,2-a]pyridine-2,5-dicarboxamide]"
3,< 2000,"CC1(C)C2CC[C@H](CNC(=O)c3cccc4nc(CC(=O)NC5CCCC5)cn34)C1C2 (stereo partly drawn) [Compound 791, 2-[2-(cyclopentylamino)-2-oxoethyl]-N-{[(2S)-6,6-dimethylbicyclo [3.1.1]hept-2-yl]methyl}imidazo [1,2-a]pyridine-5-carboxamide]"
4,< 2000,"CC(C)CC(CNC(=O)c1cccc2nc(CN3CC[C@@H](N)C3)cn12)C1CCCCC1 (stereo partly shown) [Compound 739, 2-[(3-aminopyrrolidin-1-yl)methyl]-N-(2-cyclohaxyl-4-methylpentyl)imidazo [1,2-a]pyridine-5-carboxamide]"
5,< 2000,"CCN(CC)CCNC(=O)c1cn2c(C(=O)NCC34CC5CC(CC(C5)C3)C4)cccc2n1 [Compound 651, 5-N-(adamantan-1-ylmethyl)-2-N-[2-(diethylamino)ethyl]imidazo [1,2-a]pyridine-2,5-dicarboxamide]"
6,< 2000,"COCCN(C(=O)c1cn2c(C(=O)NCC34CC5CC(CC(C5)C3)C4)cccc2n1)C1CCNCC1 [Compound 618, 5-N-(adamantan-1-ylmethyl)-2-N-(2-methoxyethyl)-2-N-piperidin-4-yl imidazo[1,2-a]pyridine-2,5-dicarboxamide]"

# Same assay, conditions: 50% decrease in the fluorescence response of cells exposed to 80 μM of 2′(3′)-O-(4-benzoyl-benzoyl)adenosine 5′-triphosphate; determined as in Example 4A; read-out: IC50
row,IC50 [nM],Compound
1,< 2000,"CC(C)CC(CNC(=O)c1cccc2nc(CC(=O)N[C@@H]3CCN(C(=O)OC(C)(C)C)C3)cn12)c1ccc(Cl)cc1 (stereo partly shown) [Compound 967, tert-butyl 3-{[(5-{[2-(4-chlorophenyl)-4-methylpentyl]carbamoyl}imidazo[1,2-a]pyridin-2-yl)acetyl]amino} pyrrolidine-1-carboxylate]"
2,< 2000,"O=C(Cc1cn2c(C(=O)NCC34CC5CC(CC(C5)C3)C4)cccc2n1)N[C@H]1CCCNC1 [Compound 852, N-(adamantan-1-ylmethyl)-2-{2-oxo-2-[(3S)-piperidin-3-ylamino]ethyl} imidazo [1,2-a]pyridine-5-carboxamide]"
3,< 2000,"O=C(Cc1cn2c(C(=O)NC3CCCCC3)cccc2n1)NCC1(c2ccc(Cl)cc2)CCCCC1 [Compound 980, 2-[2-({[1-(4-chlorophenyl)cyclohexyl]methyl}amino)-2-oxoethyl]-N-cyclohexyl-imidazo[1,2-a]pyridine-5-carboxamide]"
4,< 2000,"CCOC(=O)C(Cc1ccccc1)c1cn2c(C(=O)NCC(CC(C)C)c3ccc(Cl)cc3)cccc2n1 (stereo not shown) [Compound 931, ethyl 2-(5-{[2-(4-chlorophenyl)-4-methylpentyl]carbamoyl}imidazo[1,2-a]pyridin-2-yl)-3-phenylpropanoate]"

row,Compound,IC50 [nM]
1,"CC(C)N1CCN(C(=O)Cc2cn3c(C(=O)NCC4(c5ccc(C(F)(F)F)cc5)CCCCC4)cccc3n2)CC1 [Compound 885, 2-[2-(4-isopropylpiperazin-1-yl)-2-oxoethyl]-N-({1-[4-(trifluoromethyl)phenyl]cyclohexyl}methyl) imidazo[1,2-a] pyridine-5-carboxamide]",< 2000

# Same assay, conditions: P2X7 calcium mobilization, Example 4A; 50% decrease in the fluorescence response of cells exposed to 80 μM of (2′(3′)-O-(4-benzoyl-benzoyl)adenosine 5′-triphosephate); read-out: IC50
row,IC50 [nM],Compound
1,< 2000,"O=C(NCC12CC3CC(CC(C3)C1)C2)c1cccc2nc(CCN3CCCC3)cn12 [Compound 1040, N-(adamantan-1-ylmethyl)-2-(2-pyrrolidin-1-ylethyl) imidazo [1,2-a]pyridine-5-carboxamide]"
2,< 2000,"O=C(NCC(c1ccc(Cl)cc1)N1CCOCC1)c1cccc2ncc(Br)n12 (stereo not shown) [Compound 1057, 3-bromo-N-[2-(4-chlorophenyl)-2-morpholin-4-ylethyl] imidazo[1,2-a] pyridine-5-carboxamide]"

# Same assay, conditions: SH-SY5Y cells; 50% decrease in fluorescence response to 80 μM BzATP; read-out: IC50
row,IC50 [nM],Compound
1,< 2000,"CCC(COC)NC(=O)Cc1cn2c(C(=O)NCC34CC5CC(CC(C5)C3)C4)cccc2n1 (stereo not shown) [Compound 160, N-(adamantan-1-ylmethyl)-2-(2-{[1-(methoxymethyl)pro-pyl]amino}-2-oxoethyl)imidazo[1,2-a]pyridine-5-carboxamide]"
2,< 2000,"CCOC(=O)c1nc2cccc(C(=O)NCC34CC5CC(CC(C5)C3)C4)n2c1Cl [Compound 15, ethyl 5-[(adamantan-1-ylmethyl)carbamoyl]-3-chloroimidazo[1,2-a]pyridine-2-carboxylate]"
3,< 2000,"CC(=O)NC1CCN(C(=O)Cc2cn3c(C(=O)NCC45CC6CC(CC(C6)C4)C5)cccc3n2)C1 (stereo not shown) [Compound 170, 2-[2-(3-acetamidopyrrolidin-1-yl)-2-oxoethyl]-N-(adamantan-1-ylmethyl)imidazo[1,2-a]pyridine-5-carboxamide]"
4,< 2000,"C[C@H](O)CNC(=O)c1cn2c(C(=O)NCC34CC5CC(CC(C5)C3)C4)cccc2n1 [Compound 82, 5-N-(adamantan-1-ylmethyl)--[(2S)-2-hydroxy-propyl]imidazo[1,2-a]pyridine-2,5-dicarboxamide]"
5,< 2000,"CCS(=O)(=O)NCCc1cn2c(C(=O)NCC34CC5CC(CC(C5)C3)C4)cccc2n1 [Compound 194, N-(adamantan-1-ylmethyl)-2-{2-[(ethylsulfonyl)amino]eth-yl}imidazo[1,2-a]pyridine-5-carboxamide]"

# Same assay, conditions: fluorescence response of cells exposed to 80 μM 2′(3′)-O-(4-benzoyl-benzoyl)adenosine 5′-triphosphate; Example 4A; read-out: IC50
row,IC50 [nM],Compound
1,< 2000,"CCNC(=O)Cc1cn2c(C(=O)NCC(CC(C)C)c3ccccc3)cccc2n1 (stereo not shown) [Compound 220, 2-[2-(ethylamino)-2-oxoethyl]-N-(4-methyl-2-phenylpentyl) imidazo [1,2-a]pyridine-5-carboxamide]"
2,< 2000,"O=C(O)c1ccn(Cc2cn3c(C(=O)NCC45CC6CC(CC(C6)C4)C5)cccc3n2)c(=O)c1 [Compound 355, 1-({5-[(adamantan-1-ylmethyl)carbamoyl]imidazo[1,2-a]pyridin-2-yl}methyl)-2-oxo-1,2-dihydropyridine-4-carboxylic acid]"
3,< 2000,"COC[C@@H]1CCCN1C(=O)c1cn2c(NC(=O)CC34CC5CC(CC(C5)C3)C4)cccc2n1 [Compound 371, 2-adamantan-1-yl-N-(2-{[(2S)-2-(methoxymethyl)pyrrolidin-1-yl]carbonyl}imidazo [1,2-a]pyridin-5-yl)acetamide]"
4,< 2000,"CC(C)CN(C)C(=O)c1cn2c(NC(=O)CC34CC5CC(CC(C5)C3)C4)cccc2n1 [Compound 367, 5-[(adamantan-1-ylacetyl)amino]-N-isobutyl-N-methylimidazo[1,2-a]pyridine-2-carboxamide]"
5,< 2000,"CCCCN(CC)C(=O)c1cn2c(NC(=O)CC34CC5CC(CC(C5)C3)C4)cccc2n1 [Compound 373, 5-[(adamantan-1-ylacetyl)amino]-N-butyl-N-ethylimidazo[1,2-a]pyridine-2-carboxamide]"
6,< 2000,"CC(=O)NC1CCN(C(=O)c2cn3c(NC(=O)CC45CC6CC(CC(C6)C4)C5)cccc3n2)CC1 [Compound 408, N-{2-[(4-acetamidopiperidin-1-yl)carbonyl]imidazo[1,2-a]pyridin-5-yl}-2-adamantan-1-ylacetamide]"
7,< 2000,"CN(CC(=O)O)Cc1cn2c(C(=O)NCC34CC5CC(CC(C5)C3)C4)cccc2n1 [Compound 348, N-({5-[(adamantan-1-ylmethyl)carbamoyl]imidazo[1,2-a]pyridin-2-yl}methyl)-N-methylglycine]"
8,< 2000,"O=C(NCC12CC3CC(CC(C3)C1)C2)c1cccc2nc(CS(=O)(=O)CCO)cn12 [Compound 267, N-(adamantan-1-ylmethyl)-2-{[(2-hydroxyethyl)sulfonyl]methyl}imidazo[1,2-a]pyridine-5-carboxamide]"
